Data from the NIST ThermoML archive (doi:10.1016/j.jct.2006.03.018).
± gives the expanded uncertainty stated by the source.

Key:
[1] = xn = mol fraction of the nth substance listed; conditions: 101 kPa, Liquid
[2] = refractive index (Na D-line) (dimensionless); xn = mol fraction of the nth substance listed; conditions: 101 kPa, Liquid

COc1ccccc1 [anisole] + CCCCCO
Conditions | mass density, 298.15 K [kg/m3] | mass density, 303.15 K [kg/m3] | mass density, 308.15 K [kg/m3] | refractive index, 298.15 K | refractive index, 303.15 K | refractive index, 308.15 K | speed of sound, 298.15 K [m/s] | viscosity, 298.15 K [mPa·s] | viscosity, 303.15 K [mPa·s] | viscosity, 308.15 K [mPa·s]
[1], x1 = 0.1013 | 828.63 ± 3.3 | 824.77 ± 3.3 | 820.91 ± 3.4 | – | – | – | 1298 ± 45 | 2.677 ± 0.31 | 2.332 ± 0.27 | 2.051 ± 0.24
[1], x1 = 0.2032 | 846.67 ± 3.1 | 842.67 ± 3.1 | 838.66 ± 3.2 | – | – | – | 1311 ± 45 | 2.005 ± 0.24 | 1.773 ± 0.21 | 1.575 ± 0.19
[1], x1 = 0.3022 | 864.26 ± 2.9 | 860.11 ± 2.9 | 855.96 ± 3 | – | – | – | 1324 ± 45 | 1.743 ± 0.21 | 1.545 ± 0.19 | 1.384 ± 0.17
[1], x1 = 0.3946 | 880.67 ± 2.7 | 876.42 ± 2.8 | 872.17 ± 2.8 | – | – | – | 1336 ± 46 | 1.513 ± 0.18 | 1.359 ± 0.17 | 1.219 ± 0.15
[1], x1 = 0.4912 | 897.83 ± 2.5 | 893.47 ± 2.6 | 889.11 ± 2.6 | – | – | – | 1350 ± 46 | 1.318 ± 0.16 | 1.195 ± 0.15 | 1.091 ± 0.14
[1], x1 = 0.5984 | 916.91 ± 2.3 | 912.45 ± 2.4 | 907.98 ± 2.4 | – | – | – | 1361 ± 46 | 1.18 ± 0.15 | 1.072 ± 0.14 | 0.979 ± 0.12
[1], x1 = 0.6976 | 934.59 ± 2.1 | 930.04 ± 2.2 | 925.49 ± 2.2 | – | – | – | 1374 ± 46 | 1.092 ± 0.14 | 0.999 ± 0.13 | 0.916 ± 0.12
[1], x1 = 0.7965 | 952.41 ± 1.9 | 947.78 ± 2 | 943.15 ± 2 | – | – | – | 1388 ± 47 | 1.004 ± 0.13 | 0.927 ± 0.12 | 0.853 ± 0.11
[1], x1 = 0.8974 | 970.59 ± 1.8 | 965.9 ± 1.8 | 961.2 ± 1.9 | – | – | – | 1395 ± 47 | 0.955 ± 0.12 | 0.88 ± 0.11 | 0.919 ± 0.12
[1], x1 = 1 | 989.15 ± 1.6 | 984.45 ± 1.6 | 979.73 ± 1.7 | – | – | – | 1412 ± 47 | 0.988 ± 0.13 | 0.913 ± 0.12 | 0.854 ± 0.11
[2], x1 = 0.1013 | – | – | – | 1.4091 ± 0.005 | 1.4066 ± 0.005 | 1.404 ± 0.005 | – | – | – | –
[2], x1 = 0.2032 | – | – | – | 1.4166 ± 0.005 | 1.4138 ± 0.005 | 1.4112 ± 0.005 | – | – | – | –
[2], x1 = 0.3022 | – | – | – | 1.4237 ± 0.005 | 1.4219 ± 0.005 | 1.4201 ± 0.005 | – | – | – | –
[2], x1 = 0.3946 | – | – | – | 1.4333 ± 0.005 | 1.4302 ± 0.005 | 1.4272 ± 0.005 | – | – | – | –
[2], x1 = 0.4912 | – | – | – | 1.4429 ± 0.005 | 1.4401 ± 0.005 | 1.4379 ± 0.005 | – | – | – | –
[2], x1 = 0.5984 | – | – | – | 1.4561 ± 0.005 | 1.4533 ± 0.005 | 1.451 ± 0.005 | – | – | – | –
[2], x1 = 0.6976 | – | – | – | 1.4667 ± 0.005 | 1.4642 ± 0.005 | 1.4616 ± 0.005 | – | – | – | –
[2], x1 = 0.7965 | – | – | – | 1.4807 ± 0.005 | 1.4778 ± 0.005 | 1.4747 ± 0.005 | – | – | – | –
[2], x1 = 0.8974 | – | – | – | 1.4963 ± 0.005 | 1.4934 ± 0.005 | 1.491 ± 0.005 | – | – | – | –
[2], x1 = 1 | – | – | – | 1.5137 ± 0.005 | 1.5113 ± 0.005 | 1.5088 ± 0.005 | – | – | – | –
